Source: patent publication EP4781993A1, “ANTIBACTERIAL COMPOSITION AND ANTIBACTERIAL DRUG” (Shenzhen China Resources Gosun Pharmaceuticals Co., Ltd., priority 2023, dated 2025)
Where a name gives a salt, the structure may show the parent alone. Read-outs that look alike come from different tables or passages of the source.

Tests used:
[1] = system: OXA-232 producing Klebsiella pneumoniae; assay: Broth-microdilution MIC (CLSI M07-A11) against clinical isolates; format: cell-based; set-up: Drug concentration: unit: mg/L; conditions: for MIC50 / MIC90: Klebsiella pneumoniae; for Mode: mode of MIC; for Drug concentration: unit not given in Table 3; for antibacterial activity: verdict in words
Excerpt: (§1) As recommended by CLSI (Clinical and Laboratory Standards Institute) M07-A11 (2018 edition), the Broth-microdilution method is adopted to determine the minimum inhibitory concentration (MIC) of ceftobiprole and zidebactam against clinical isolates. It should be noted that, in the present disclosure, MIC50 refers to the minimum drug concentration that inhibits the growth of 50% of the tested bacteria, and MIC90 refers to the minimum drug concentration that inhibits the growth of 90% of the tested bacteria.
(§2) Antibacterial drug: ceftobiprole, manufacturer: Shenyang Sanjiu Pharmaceutical, content: 92.1%, batch number: YF/BALP141/000. Zidebactam, manufacturer: Target M01 company, batch number: 149661. Zidebactam, as described above, the English name is Zidebactam, and the chemical name is: (2S,5R)-7-oxo-2-(2-((R)-piperidine-3-carbonyl)hydrazine-1-carbonyl)-1,6-diazabicyclo[3.2.1]octan-6-yl hydrogen sulfate.
(§3) Tested strains: a total of 24 genotypic strains producing KPC or OXA β-lactamase. Specifically, the tested strains include 24 strains of Klebsiella pneumoniae, including 12 KPC-2 producing strains and 12 OXA-232 producing strains.
(§4) Quality control strains: Escherichia coli ATCC 25922, (KPC-2 producing) Klebsiella pneumoniae ATCC BAA-1705, and (NDM-1 producing) Klebsiella pneumoniae ATCC BAA-2146.
(§5) Medium: cation-adjusted Mueller-Hinton broth (CAMHB), a product of BBL Company, USA.
(§6) Inoculum size: Pure isolated colonies were adjusted with normal saline to 0.5 McFarland turbidity. After appropriate dilution, the suspension was added to the wells of a 96-well U-bottom microplate (containing 50 µL antibacterial drug solution). The inoculum size was 5 × 10^5 CFU/mL.
(§7) Culture conditions: air environment, 35°C ± 2°C, 16 to 20 hours.
(§8) Preparation of Antibacterial Drug Solution : Ceftobiprole and zidebactam were taken separately, dissolution and dilution were performed according to the antibacterial drug reference to the CLSI standards and the drug package insert, A1 to A6, a total of 6 groups of antibacterial drug solutions, were prepared, among which, group A1 was the control group containing solely the single agent ceftobiprole, and group A2 was the control group containing solely the single agent zidebactam. Different antibacterial drug solutions with ceftobiprole concentrations ranging from 128 mg/L to 0.06 mg/L were respectively included in groups A1 and A3 to A6, and different antibacterial drug solutions with zidebactam concentrations ranging from 128 mg/L to 0.06 mg/L were included in group A2. The specific concentrations within the range of 128 mg/L to 0.06 mg/L in groups A1 to A6 were respectively 128 mg/L, 64 mg/L, 32 mg/L, 16 mg/L, 8 mg/L, 4 mg/L, 2 mg/L, 1 mg/L, 0.5 mg/L, 0.25 mg/L, 0.125 mg/L, or 0.06 mg/L, respectively. Table 1. Concentrations of ceftobiprole/zidebactam contained in the antibacterial drug solutions of groups A1 to A6
(§9) Experimental results: Currently, there are no established CLSI or EUCAST breakpoints for ceftobiprole/β-lactamase inhibitor. Therefore, the antibacterial activity of ceftobiprole/β-lactamase inhibitor is evaluated in accordance with the standards for ceftobiprole. WHONET 5.6 software is used to perform statistical analysis on the results of antibacterial susceptibility test. The fractional inhibitory concentration index (FIC) for the combination of ceftobiprole and zidebactam is calculated according to Equation (1). FIC index = (MIC of drug A in combination)/(MIC of drug A alone) + (MIC of drug B in combination)/(MIC of drug B alone) [formula]
(§10) In Equation (1), drug A is ceftobiprole, and drug B is zidebactam. […] Table 2. In vitro antibacterial activity of ceftobiprole/zidebactam against the tested bacteria in Example 1 […]

[2] = system: KPC-2 producing Klebsiella pneumoniae; assay: as above; format: cell-based; set-up: Drug concentration: unit: mg/L; conditions: for Mode: mode of MIC; for Drug concentration: unit not given in Table 3; for antibacterial activity: verdict in words
Excerpt: as §1, §2, §3, §4, §5, §6, §7, §8, §9, §10

[3] = 12 strains, MIC = ceftobiprole concentration (groups A2, B2, C2, D2, E2: inhibitor alone)
[4] = strain 20-W4-001 (kpn, OXA-232)
[5] = strain 20-W4-002 (kpn, OXA-232)
[6] = strain 20-W4-003 (kpn, OXA-232)
[7] = strain 20-W4-004 (kpn, OXA-232)
[8] = strain 20-W4-005 (kpn, OXA-232)
[9] = strain 20-W4-007 (kpn, OXA-232)
[10] = strain 20-W4-008 (kpn, OXA-232)
[11] = strain 20-W4-009 (kpn, OXA-232)
[12] = strain 20-W4-010 (kpn, OXA-232)
[13] = strain 20-W4-011 (kpn, OXA-232)
[14] = strain 20-W4-012 (kpn, OXA-232)
[15] = strain 20-W4-013 (kpn, OXA-232)
[16] = 12 strains, MIC = ceftobiprole concentration (groups A2, B2, C2, D2, E2: inhibitor alone), listed as Group Al
[17] = Klebsiella pneumoniae, 12 strains, MIC = ceftobiprole concentration (groups A2, B2, C2, D2, E2: inhibitor alone), read-out: MIC50
[18] = Klebsiella pneumoniae, 12 strains, MIC = ceftobiprole concentration (groups A2, B2, C2, D2, E2: inhibitor alone), read-out: MIC90

Nc1nc(/C(=N/O)C(=O)N[C@@H]2C(=O)N3C(C(=O)O)=C(/C=C4\CCN([C@@H]5CCNC5)C4=O)CS[C@H]23)ns1 [Group A1, (6R,7R)-7-((Z)-2-(5-amino-1,2,4-thiadiazol-3-yl)-2-(hydroxyimino)acetamido)-8-oxo-3-((E)-((R)-2-oxo-[1,3'-bipyrrolidin]-3-ylidene)methyl)-5-thia-1-azabicyclo[4.2.0]oct-2-ene-2-carboxylic acid]
>128: Drug concentration [1, 4] | Drug concentration [1, 5] | Drug concentration [1, 6] | Drug concentration [1, 7] | Drug concentration [1, 8] | Drug concentration [1, 9] | Drug concentration [1, 10] | Drug concentration [1, 11] | Drug concentration [1, 12] | Drug concentration [1, 13] | Drug concentration [1, 14] | Drug concentration [1, 15] | Drug concentration ([2]; strain 18-W09-043 (kpn, KPC-2)) | Drug concentration ([2]; strain 18-W09-045 (kpn, KPC-2)) | Drug concentration ([2]; strain 18-W09-046 (kpn, KPC-2)) | Drug concentration ([2]; strain 18-W09-047 (kpn, KPC-2)) | Drug concentration ([2]; strain 18-W09-049 (kpn, KPC-2)) | Drug concentration ([2]; strain 18-W09-050 (kpn, KPC-2)) | Drug concentration ([2]; strain 18-W09-051 (kpn, KPC-2)) | Drug concentration ([2]; strain 18-W13-043 (kpn, KPC-2)) | Drug concentration ([2]; strain 18-W13-044 (kpn, KPC-2)) | Drug concentration ([2]; strain 18-W13-045 (kpn, KPC-2)) | Drug concentration ([2]; strain 18-W13-046 (kpn, KPC-2)) | Drug concentration ([2]; strain 18-W13-047 (kpn, KPC-2))
100%: Cumulative inhibition rate (%) ([1]; MIC >128 mg/L) | Cumulative inhibition rate (%) ([2]; MIC >128 mg/L)
12: Cumulative number of strains ([1]; MIC >128 mg/L) | Number of strains ([1]; MIC >128 mg/L) | Cumulative number of strains ([2]; MIC >128 mg/L) | Number of strains ([2]; MIC >128 mg/L)
≥ 128 µg/mL: MIC50 [1, 3] | MIC90 [1, 3] | MIC50 [2, 17] | MIC90 [2, 18]
no antibacterial activity: antibacterial activity [1] | antibacterial activity [2]
>128 µg/mL: MIC range [1, 3] | MIC range [2, 3] | MIC50 [2, 16] | MIC90 [2, 16]
>128 mg/L: Mode ([1]; 12 strains) | Mode ([2]; 12 strains)

O=C(NNC(=O)[C@@H]1CC[C@@H]2CN1C(=O)N2OS(=O)(=O)O)[C@@H]1CCCNC1 [Group A2, (2S,5R)-7-oxo-2-(2-((R)-piperidine-3-carbonyl)hydrazine-1-carbonyl)-1,6-diazabicyclo[3.2.1]octan-6-yl hydrogen sulfate]
8.3%: Cumulative inhibition rate (%) ([1]; MIC 1 mg/L) | Cumulative inhibition rate (%) ([2]; MIC 1 mg/L)
8: Cumulative number of strains ([1]; MIC 128 mg/L) | Drug concentration [1, 13]
50%: Cumulative inhibition rate (%) ([1]; MIC 64 mg/L)
7: Number of strains ([2]; MIC >128 mg/L)
>128: Drug concentration [1, 4] | Drug concentration [1, 5] | Drug concentration [1, 7] | Drug concentration [1, 14] | Drug concentration ([2]; strain 18-W09-043 (kpn, KPC-2)) | Drug concentration ([2]; strain 18-W09-045 (kpn, KPC-2)) | Drug concentration ([2]; strain 18-W09-049 (kpn, KPC-2)) | Drug concentration ([2]; strain 18-W09-051 (kpn, KPC-2)) | Drug concentration ([2]; strain 18-W13-043 (kpn, KPC-2)) | Drug concentration ([2]; strain 18-W13-044 (kpn, KPC-2)) | Drug concentration ([2]; strain 18-W13-046 (kpn, KPC-2))
41.7%: Cumulative inhibition rate (%) ([1]; MIC 8 mg/L) | Cumulative inhibition rate (%) ([2]; MIC 128 mg/L)
4: Cumulative number of strains ([1]; MIC 4 mg/L) | Number of strains ([1]; MIC >128 mg/L) | Drug concentration [1, 6] | Drug concentration [1, 15] | Number of strains ([2]; MIC 128 mg/L)
33.3%: Cumulative inhibition rate (%) ([1]; MIC 4 mg/L)
66.7%: Cumulative inhibition rate (%) ([1]; MIC 128 mg/L)
1: Cumulative number of strains ([1]; MIC 1 mg/L) | Number of strains ([1]; MIC 1 mg/L) | Number of strains ([1]; MIC 2 mg/L) | Number of strains ([1]; MIC 8 mg/L) | Number of strains ([1]; MIC 64 mg/L) | Drug concentration [1, 12] | Cumulative number of strains ([2]; MIC 1 mg/L) | Number of strains ([2]; MIC 1 mg/L) | Drug concentration ([2]; strain 18-W13-047 (kpn, KPC-2))
12: Cumulative number of strains ([1]; MIC >128 mg/L) | Cumulative number of strains ([2]; MIC >128 mg/L)
128: Drug concentration [1, 8] | Drug concentration [1, 11] | Drug concentration ([2]; strain 18-W09-046 (kpn, KPC-2)) | Drug concentration ([2]; strain 18-W09-047 (kpn, KPC-2)) | Drug concentration ([2]; strain 18-W09-050 (kpn, KPC-2)) | Drug concentration ([2]; strain 18-W13-045 (kpn, KPC-2))
2: Cumulative number of strains ([1]; MIC 2 mg/L) | Number of strains ([1]; MIC 4 mg/L) | Number of strains ([1]; MIC 128 mg/L) | Drug concentration [1, 9]
64 µg/mL: MIC50 [1, 3]
5: Cumulative number of strains ([1]; MIC 8 mg/L) | Cumulative number of strains ([2]; MIC 128 mg/L)
> 128 µg/mL: MIC90 [1, 3] | MIC50 [2, 17] | MIC90 [2, 18]
16.7%: Cumulative inhibition rate (%) ([1]; MIC 2 mg/L)
100%: Cumulative inhibition rate (%) ([1]; MIC >128 mg/L) | Cumulative inhibition rate (%) ([2]; MIC >128 mg/L)
64: Drug concentration [1, 10]
6: Cumulative number of strains ([1]; MIC 64 mg/L)
>128 mg/L: Mode ([1]; 12 strains) | Mode ([2]; 12 strains)

O=C(NC1CCNCC1)[C@@H]1CC[C@@H]2CN1C(=O)N2OS(=O)(=O)O [Group C2, (1R,2S,5R)-7-oxo-2-(piperidin-4-ylcarbamoyl)-1,6-diazabicyclo[3.2.1]octan-6-yl hydrogen sulfate]
7: Number of strains ([1]; MIC >128 mg/L)
9: Number of strains ([2]; MIC >128 mg/L)
> 128 µg/mL: MIC50 [1, 3] | MIC90 [1, 3] | MIC50 [2, 17] | MIC90 [2, 18]
3: Cumulative number of strains ([2]; MIC 128 mg/L) | Number of strains ([2]; MIC 128 mg/L)
no antibacterial activity: antibacterial activity [1] | antibacterial activity [2]
12: Cumulative number of strains ([1]; MIC >128 mg/L) | Cumulative number of strains ([2]; MIC >128 mg/L)
5: Cumulative number of strains ([1]; MIC 128 mg/L) | Number of strains ([1]; MIC 128 mg/L)
25%: Cumulative inhibition rate (%) ([2]; MIC 128 mg/L)
>128 mg/L: Mode ([1]; 12 strains) | Mode ([2]; 12 strains)
100%: Cumulative inhibition rate (%) ([1]; MIC >128 mg/L) | Cumulative inhibition rate (%) ([2]; MIC >128 mg/L)
41.7%: Cumulative inhibition rate (%) ([1]; MIC 128 mg/L)
